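Each compound was tested at five concentrations against cells in 96-well plates for 48 hours. Abbreviation: GI50, concentration required for 50% inhibition of growth. TGI: concentration producing complete growth inhibition.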
Legend:
Assay in all cases: NCI anticancer screen, dose series, 48 h
COLO 205 colon = system: COLO 205 colon
NCI-H522 lung = system: NCI-H522 lung
KM12 colon = system: KM12 colon
OVCAR-5 ovarian = system: OVCAR-5 ovarian
SK-MEL-5 melanoma = system: SK-MEL-5 melanoma
MOLT-4 leukemia = system: MOLT-4 leukemia
SK-MEL-28 melanoma = system: SK-MEL-28 melanoma
MCF7 breast = system: MCF7 breast
EKVX NSCLC = system: EKVX NSCLC
SNB-19 CNS = system: SNB-19 CNS

COc1ccc(C2NC(=S)NC3=C2CCOc2c3ccc3ccccc23)cc1 (centres undefined) was tested. Which GI50 (COLO 205 colon) did it give?
The GI50 was 53.8 µM.

What about the TGI (COLO 205 colon) of the same compound?
The TGI was > 100 µM.

What about the GI50 (NCI-H522 lung) of the same compound?
Its GI50 is 46.6 µM.

What about the TGI (NCI-H522 lung) of the same compound?
Its TGI is > 100 µM.

And the GI50 (KM12 colon)?
Its GI50 is 27 µM.

And the TGI (KM12 colon)?
The TGI was > 100 µM.

And the GI50 (OVCAR-5 ovarian)?
Its GI50 is > 100 µM.

What about the TGI (OVCAR-5 ovarian) of the same compound?
The TGI was > 100 µM.

And the GI50 (SK-MEL-5 melanoma)?
Its GI50 is 18.2 µM.

What about the TGI (SK-MEL-5 melanoma) of the same compound?
Its TGI is > 100 µM.

What about the GI50 (MOLT-4 leukemia) of the same compound?
Its GI50 is 87.1 µM.

And the TGI (MOLT-4 leukemia)?
The TGI was > 100 µM.

And the GI50 (SK-MEL-28 melanoma)?
Its GI50 is > 100 µM.

What about the TGI (SK-MEL-28 melanoma) of the same compound?
Its TGI is > 100 µM.

And the GI50 (MCF7 breast)?
The GI50 was 5.32 µM.

What about the TGI (MCF7 breast) of the same compound?
The TGI was > 100 µM.

What about the GI50 (EKVX NSCLC) of the same compound?
The GI50 was 17.4 µM.

What about the TGI (EKVX NSCLC) of the same compound?
Its TGI is > 100 µM.

And the GI50 (SNB-19 CNS)?
The GI50 was > 100 µM.

What about the TGI (SNB-19 CNS) of the same compound?
Its TGI is > 100 µM.

Which TGI (COLO 205 colon) does the source give for Cn1c(=O)c2c(nc(N/N=C/c3ccccc3C(=O)O)n2C)n(C)c1=O here?
Its TGI is > 100 µM.

And the TGI (NCI-H522 lung)?
Its TGI is > 100 µM.

What about the TGI (KM12 colon) of the same compound?
Its TGI is > 100 µM.

What about the TGI (OVCAR-5 ovarian) of the same compound?
Its TGI is > 100 µM.

And the TGI (SK-MEL-5 melanoma)?
Its TGI is > 100 µM.

What about the TGI (MOLT-4 leukemia) of the same compound?
The TGI was > 100 µM.

What about the TGI (SK-MEL-28 melanoma) of the same compound?
Its TGI is > 100 µM.

What about the TGI (MCF7 breast) of the same compound?
Its TGI is > 100 µM.

What about the TGI (EKVX NSCLC) of the same compound?
Its TGI is > 100 µM.

What about the TGI (SNB-19 CNS) of the same compound?
The TGI was > 100 µM.

How did the GI50 (COLO 205 colon) turn out when NC(=O)/C(=C/n1cnc(-c2cc(C(F)(F)F)cc(C(F)(F)F)c2)n1)c1cncnc1 was run?
The GI50 was 0.124 µM.

And the TGI (COLO 205 colon)?
The TGI was 11.5 µM.

And the GI50 (NCI-H522 lung)?
Its GI50 is 0.331 µM.

And the TGI (NCI-H522 lung)?
Its TGI is 4.33 µM.

What about the GI50 (KM12 colon) of the same compound?
The GI50 was 1.19 µM.

And the TGI (KM12 colon)?
Its TGI is 13.4 µM.

And the GI50 (OVCAR-5 ovarian)?
The GI50 was 0.447 µM.

And the TGI (OVCAR-5 ovarian)?
The TGI was 16.2 µM.

What about the GI50 (SK-MEL-5 melanoma) of the same compound?
Its GI50 is 1.13 µM.

What about the TGI (SK-MEL-5 melanoma) of the same compound?
The TGI was 10.2 µM.

What about the GI50 (MOLT-4 leukemia) of the same compound?
Its GI50 is 0.0884 µM.

And the TGI (MOLT-4 leukemia)?
The TGI was 6.32 µM.

What about the GI50 (SK-MEL-28 melanoma) of the same compound?
Its GI50 is 0.503 µM.

And the TGI (SK-MEL-28 melanoma)?
Its TGI is 11.7 µM.

And the GI50 (MCF7 breast)?
Its GI50 is 0.112 µM.

What about the TGI (MCF7 breast) of the same compound?
Its TGI is 11.2 µM.

What about the GI50 (EKVX NSCLC) of the same compound?
The GI50 was 0.566 µM.

What about the TGI (EKVX NSCLC) of the same compound?
Its TGI is 20.8 µM.

What about the GI50 (SNB-19 CNS) of the same compound?
The GI50 was 0.654 µM.

What about the TGI (SNB-19 CNS) of the same compound?
Its TGI is 15 µM.

Which GI50 (COLO 205 colon) does the source give for O=C1Nc2ccc3c(c2/C1=C\c1cc2c(cc1Br)OCO2)OCO3 here?
The GI50 was 0.356 µM.

What about the TGI (COLO 205 colon) of the same compound?
The TGI was 2.66 µM.

And the GI50 (NCI-H522 lung)?
The GI50 was 0.369 µM.

And the TGI (NCI-H522 lung)?
The TGI was 8.17 µM.

And the GI50 (KM12 colon)?
Its GI50 is 0.307 µM.

And the TGI (KM12 colon)?
The TGI was 1.43 µM.

What about the GI50 (OVCAR-5 ovarian) of the same compound?
The GI50 was 1.55 µM.

What about the TGI (OVCAR-5 ovarian) of the same compound?
Its TGI is 5.89 µM.

And the GI50 (SK-MEL-5 melanoma)?
The GI50 was 0.429 µM.

And the TGI (SK-MEL-5 melanoma)?
The TGI was 2.52 µM.

What about the GI50 (MOLT-4 leukemia) of the same compound?
The GI50 was 0.489 µM.

And the TGI (MOLT-4 leukemia)?
Its TGI is > 100 µM.

What about the GI50 (SK-MEL-28 melanoma) of the same compound?
The GI50 was 0.911 µM.

What about the TGI (SK-MEL-28 melanoma) of the same compound?
The TGI was 5.32 µM.

What about the GI50 (MCF7 breast) of the same compound?
The GI50 was 0.351 µM.

And the TGI (MCF7 breast)?
Its TGI is 2.87 µM.

And the GI50 (EKVX NSCLC)?
The GI50 was 0.639 µM.

What about the TGI (EKVX NSCLC) of the same compound?
Its TGI is 8.09 µM.

And the GI50 (SNB-19 CNS)?
The GI50 was 0.552 µM.

What about the TGI (SNB-19 CNS) of the same compound?
The TGI was 7.04 µM.

What does the source list for COc1ccccc1C(=O)N(Cc1ccccc1)c1ccc(Cl)c(C(=O)OC(C)C)c1?
TGI (COLO 205 colon): 50.9 µM; TGI (NCI-H522 lung): 18.3 µM; TGI (KM12 colon): > 81 µM; TGI (OVCAR-5 ovarian): > 100 µM; TGI (SK-MEL-5 melanoma): 26.1 µM; TGI (MOLT-4 leukemia): 66.3 µM; TGI (SK-MEL-28 melanoma): > 100 µM; TGI (MCF7 breast): > 100 µM; TGI (EKVX NSCLC): > 87.8 µM; TGI (SNB-19 CNS): > 100 µM

Which results are given for COc1ccc(-c2csc(Nc3cccc(-c4csc(C)n4)c3)n2)cc1?
GI50 (COLO 205 colon): 0.636 µM; TGI (COLO 205 colon): > 26.1 µM; GI50 (NCI-H522 lung): 1.23 µM; TGI (NCI-H522 lung): > 16.4 µM; GI50 (KM12 colon): 1.17 µM; TGI (KM12 colon): > 16.7 µM; GI50 (OVCAR-5 ovarian): 3.45 µM; TGI (OVCAR-5 ovarian): 48.6 µM; GI50 (SK-MEL-5 melanoma): 1.19 µM; TGI (SK-MEL-5 melanoma): 7.85 µM; GI50 (MOLT-4 leukemia): 0.287 µM; TGI (MOLT-4 leukemia): 7.11 µM; GI50 (SK-MEL-28 melanoma): 1.98 µM; TGI (SK-MEL-28 melanoma): > 12.1 µM; GI50 (MCF7 breast): 0.31 µM; TGI (MCF7 breast): > 50 µM; GI50 (EKVX NSCLC): 3.63 µM; TGI (EKVX NSCLC): > 50 µM; GI50 (SNB-19 CNS): 1.04 µM; TGI (SNB-19 CNS): > 50 µM

How did the GI50 (COLO 205 colon) turn out when C[C@@H]1CCc2ncc(F)cc2[C@H]2CCCN2c2ccn3ncc(c3n2)C(=O)N1 was run?
The GI50 was 75.9 µM.

What about the TGI (COLO 205 colon) of the same compound?
The TGI was > 100 µM.

What about the GI50 (NCI-H522 lung) of the same compound?
Its GI50 is 83.7 µM.

And the TGI (NCI-H522 lung)?
The TGI was > 100 µM.

What about the TGI (KM12 colon) of the same compound?
The TGI was > 100 µM.

And the GI50 (OVCAR-5 ovarian)?
Its GI50 is > 100 µM.

What about the TGI (OVCAR-5 ovarian) of the same compound?
Its TGI is > 100 µM.

What about the GI50 (SK-MEL-5 melanoma) of the same compound?
Its GI50 is > 100 µM.

And the TGI (SK-MEL-5 melanoma)?
Its TGI is > 100 µM.

What about the GI50 (MOLT-4 leukemia) of the same compound?
Its GI50 is 36.1 µM.

What about the TGI (MOLT-4 leukemia) of the same compound?
The TGI was > 100 µM.

What about the GI50 (SK-MEL-28 melanoma) of the same compound?
Its GI50 is > 100 µM.

And the TGI (SK-MEL-28 melanoma)?
The TGI was > 100 µM.

What about the GI50 (MCF7 breast) of the same compound?
Its GI50 is 53.1 µM.

And the TGI (MCF7 breast)?
Its TGI is > 100 µM.

What about the GI50 (EKVX NSCLC) of the same compound?
The GI50 was 48.8 µM.

What about the TGI (EKVX NSCLC) of the same compound?
The TGI was > 100 µM.

What about the GI50 (SNB-19 CNS) of the same compound?
The GI50 was > 100 µM.

And the TGI (SNB-19 CNS)?
The TGI was > 100 µM.

— PubChem BioAssay (NCI)
